This passage reports IC50 results from patent US20240299385A1 (ReWind Therapeutics NV, priority 2021, published 2024).

For this assay, the target named is T1, human GPR17 receptor (Homo sapiens, UniProt Q13304).
T1 construct: host or cells: HEK-293
Put plainly: Calcium mobilization functional assay (Fluo-8, FLIPR TETRA) in HEK-293 hGPR17 (Gα-q assay). The conditions noted are these: antagonism of MDL29,951 (~EC80) induced Ca2+ signal; cell line (HEK-293 hGPR17 or HEK-293 Suchi5 hGPR17) not given. It counts as cell-based. The method, boiled down: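 Fluo-8-loaded HEK-293 hGPR17 cells (60 min dye loading, room temperature) were preincubated with compound for twenty minutes, then challenged with agonist MDL29,951 at ~EC80, 500 nM. Intracellular calcium release via Gα-q was recorded as FLIPR fluorescence for a further 2 minutes; compounds tested in duplicate.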
Background: Calcium flux is commonly read through the fluorescence of an indicator in the cells.

Broadly, the IC50 is the concentration needed to halve the response being measured.

T1 sequence (Q13304 whole entry): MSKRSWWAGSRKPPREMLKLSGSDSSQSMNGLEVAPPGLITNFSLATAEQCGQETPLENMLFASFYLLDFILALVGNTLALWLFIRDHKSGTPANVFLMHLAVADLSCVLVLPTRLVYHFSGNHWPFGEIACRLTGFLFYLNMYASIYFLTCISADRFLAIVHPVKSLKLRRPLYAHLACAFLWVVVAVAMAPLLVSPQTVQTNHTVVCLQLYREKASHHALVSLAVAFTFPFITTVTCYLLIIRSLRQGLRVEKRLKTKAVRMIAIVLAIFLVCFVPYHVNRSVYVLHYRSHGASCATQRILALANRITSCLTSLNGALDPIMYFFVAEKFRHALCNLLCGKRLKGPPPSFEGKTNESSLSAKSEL

In the case of `N#Cc1ccc(NS(=O)(=O)c2c[nH]cc2Cc2cccc(OC(F)F)c2)c(F)c1` [Cpd 309, N-(4-cyano-2-fluoro-phenyl)-4-[[3-(difluoromethoxy)phenyl]methyl]-1H-pyrrole-3-sulfonamide], the half-inhibitory concentration (IC50) was under 500 nM. To `N#Cc1ccc(NS(=O)(=O)c2c[nH]c(-c3ncccc3C(F)(F)F)c2)c(F)c1` [Cpd 310, N-(4-cyano-2-fluoro-phenyl)-5-[3-(trifluoromethyl)-2-pyridyl]-1H-pyrrole-3-sulfonamide] belongs 500 to 5000 nM. To `O=S(=O)(Nc1cc(F)c(OC2CC2)cc1F)c1c[nH]c(-c2ccccn2)c1` [Cpd 311, N-[4-(cyclopropoxy)-2,5-difluoro-phenyl]-5-(2-pyridyl)-1H-pyrrole-3-sulfonamide] belongs 500 to 5000 nM; to `N#Cc1ccc(NS(=O)(=O)c2c[nH]c(-c3ccccc3)c2)c(F)c1Cl` [Cpd 312, N-(3-chloro-4-cyano-2-fluoro-phenyl)-5-phenyl-1H-pyrrole-3-sulfonamide], 500 to 5000 nM. `O=S(=O)(Nc1ccc(C(F)(F)F)cc1F)c1c[nH]c(-c2ccccc2)c1` [Cpd 313, N-[2-fluoro-4-(trifluoromethyl)phenyl]-5-phenyl-1H-pyrrole-3-sulfonamide]: the IC50 lay within 500 to 5000 nM. Then `COc1ccc(F)cc1-c1cc(S(=O)(=O)Nc2ccc(C#N)cc2F)c[nH]1` [Cpd 314, N-(4-cyano-2-fluoro-phenyl)-5-(5-fluoro-2-methoxy-phenyl)-1H-pyrrole-3-sulfonamide], with 500 to 5000 nM. Take `Cc1ccc(F)c(-c2cc(S(=O)(=O)Nc3cc(F)c(C(F)(F)F)cc3F)c[nH]2)c1` [Cpd 315, N-[2,5-difluoro-4-(trifluoromethyl)phenyl]-5-(2-fluoro-5-methyl-phenyl)-1H-pyrrole-3-sulfonamide]: the IC50 is 500 to 5000 nM.

On to `N#Cc1ccc(NS(=O)(=O)c2c[nH]c(-c3cc(F)cc(Cl)c3)c2)c(F)c1` [Cpd 316, 5-(3-chloro-5-fluoro-phenyl)-N-(4-cyano-2-fluoro-phenyl)-1H-pyrrole-3-sulfonamide], for which the half-maximal inhibitory concentration (IC50) lay within 500 to 5000 nM. To `N#Cc1ccc(NS(=O)(=O)c2c[nH]c(-c3ccccc3)c2)c(F)c1F` [Cpd 317, N-(4-cyano-2,3-difluoro-phenyl)-5-phenyl-1H-pyrrole-3-sulfonamide] belongs 500 to 5000 nM; to `N#Cc1cccc(-c2cc(S(=O)(=O)Nc3cc(F)c(C(F)(F)F)cc3F)c[nH]2)c1` [Cpd 318, 5-(3-cyanophenyl)-N-[2,5-difluoro-4-(trifluoromethyl)phenyl]-1H-pyrrole-3-sulfonamide], under 500 nM; to `Cc1cccc(-c2cc(S(=O)(=O)Nc3cc(F)c(C(F)(F)F)cc3F)c[nH]2)c1F` [Cpd 319, N-[2,5-difluoro-4-(trifluoromethyl)phenyl]-5-(2-fluoro-3-methyl-phenyl)-1H-pyrrole-3-sulfonamide], 500 to 5000 nM. To `O=S(=O)(Nc1cc(F)c(C(F)(F)F)cc1F)c1c[nH]c(-c2cc(Cl)ccc2F)c1` [Cpd 320, 5-(5-chloro-2-fluoro-phenyl)-N-[2,5-difluoro-4-(trifluoromethyl)phenyl]-1H-pyrrole-3-sulfonamide] belongs 500 to 5000 nM.

With `Cc1cccc(F)c1-c1cc(S(=O)(=O)Nc2cc(F)c(C(F)(F)F)cc2F)c[nH]1` [Cpd 321, N-[2,5-difluoro-4-(trifluoromethyl)phenyl]-5-(2-fluoro-6-methyl-phenyl)-1H-pyrrole-3-sulfonamide], the IC50 is 500 to 5000 nM. To `N#Cc1ccc(NS(=O)(=O)c2c[nH]c(-c3ccccn3)c2)c(F)c1F` [Cpd 322, N-(4-cyano-2,3-difluoro-phenyl)-5-(2-pyridyl)-1H-pyrrole-3-sulfonamide] belongs 500 to 5000 nM; to `COc1cccc(-c2cc(S(=O)(=O)Nc3cc(F)c(C(F)(F)F)cc3F)c[nH]2)c1` [Cpd 323, N-[2,5-difluoro-4-(trifluoromethyl)phenyl]-5-(3-methoxyphenyl)-1H-pyrrole-3-sulfonamide], 500 to 5000 nM; to `COc1ccc(-c2cc(S(=O)(=O)Nc3cc(F)c(C(F)(F)F)cc3F)c[nH]2)c(F)c1` [Cpd 324, N-[2,5-difluoro-4-(trifluoromethyl)phenyl]-5-(2-fluoro-4-methoxy-phenyl)-1H-pyrrole-3-sulfonamide], 5000 to 50000 nM.

For the molecule `COc1cccc(-c2cc(S(=O)(=O)Nc3cc(F)c(C(F)(F)F)cc3F)c[nH]2)c1F` [Cpd 325, N-[2,5-difluoro-4-(trifluoromethyl)phenyl]-5-(2-fluoro-3-methoxy-phenyl)-1H-pyrrole-3-sulfonamide], the IC50 was in the range of 500 to 5000 nM. `Cc1cc(NS(=O)(=O)c2c[nH]c(-c3ccccc3)c2)c(F)cc1C#N` [Cpd 326, N-(4-cyano-2-fluoro-5-methyl-phenyl)-5-phenyl-1H-pyrrole-3-sulfonamide]: the IC50 is under 500 nM. `O=S(=O)(Nc1cc(F)c(C(F)(F)F)cc1F)c1c[nH]c(-c2cccc(Cl)c2F)c1` [Cpd 327, 5-(3-chloro-2-fluoro-phenyl)-N-[2,5-difluoro-4-(trifluoromethyl)phenyl]-1H-pyrrole-3-sulfonamide]: the IC50 is 500 to 5000 nM. `O=S(=O)(Nc1c(F)cc(C(F)(F)F)cc1F)c1c[nH]c(-c2ccccc2)c1` [Cpd 328, N-[2,6-difluoro-4-(trifluoromethyl)phenyl]-5-phenyl-1H-pyrrole-3-sulfonamide]: the IC50 was in the range of 500 to 5000 nM. Regarding `Cc1ccc(-c2cc(S(=O)(=O)Nc3ccc(C#N)cc3F)c[nH]2)c(C)c1` [Cpd 329, N-(4-cyano-2-fluoro-phenyl)-5-(2,4-dimethylphenyl)-1H-pyrrole-3-sulfonamide], the half-inhibitory concentration (IC50) lay in the range of 500 to 5000 nM.

As to `N#Cc1ccc(-c2cc(S(=O)(=O)Nc3cc(F)c(C(F)(F)F)cc3F)c[nH]2)cc1` [Cpd 330, 5-(4-cyanophenyl)-N-[2,5-difluoro-4-(trifluoromethyl)phenyl]-1H-pyrrole-3-sulfonamide], the IC50 is 5000 to 50000 nM. To `Cc1ccc(C)c(-c2cc(S(=O)(=O)Nc3ccc(C#N)cc3F)c[nH]2)c1` [Cpd 331, N-(4-cyano-2-fluoro-phenyl)-5-(2,5-dimethylphenyl)-1H-pyrrole-3-sulfonamide] belongs under 500 nM; to `O=S(=O)(Nc1ccc(C(F)(F)F)c(F)c1F)c1c[nH]c(-c2ccccn2)c1` [Cpd 332, N-[2,3-difluoro-4-(trifluoromethyl)phenyl]-5-(2-pyridyl)-1H-pyrrole-3-sulfonamide], 500 to 5000 nM. Consider `N#Cc1cc(F)c(NS(=O)(=O)c2c[nH]c(-c3ccccc3)c2)cc1Cl` [Cpd 333, N-(5-chloro-4-cyano-2-fluoro-phenyl)-5-phenyl-1H-pyrrole-3-sulfonamide], for which the IC50 was under 500 nM. As to `O=S(=O)(Nc1ccc(C(F)(F)F)c(F)c1F)c1c[nH]c(-c2ccccc2)c1` [Cpd 334, N-[2,3-difluoro-4-(trifluoromethyl)phenyl]-5-phenyl-1H-pyrrole-3-sulfonamide], the IC50 is 500 to 5000 nM. To `O=S(=O)(Nc1ccc(C(F)(F)F)c(Cl)c1F)c1c[nH]c(-c2ccccn2)c1` [Cpd 335, N-[3-chloro-2-fluoro-4-(trifluoromethyl)phenyl]-5-(2-pyridyl)-1H-pyrrole-3-sulfonamide] belongs 5000 to 50000 nM; to `Cc1cc(NS(=O)(=O)c2c[nH]c(-c3ccccn3)c2)c(F)cc1C(F)(F)F` [Cpd 336, N-[2-fluoro-5-methyl-4-(trifluoromethyl)phenyl]-5-(2-pyridyl)-1H-pyrrole-3-sulfonamide], 500 to 5000 nM. Then `Cc1cccc(-c2cc(S(=O)(=O)Nc3cc(F)c(C(F)(F)F)cc3F)c[nH]2)c1` [Cpd 337, N-[2,5-difluoro-4-(trifluoromethyl)phenyl]-5-(m-tolyl)-1H-pyrrole-3-sulfonamide], with 500 to 5000 nM; and `Cc1cc(NS(=O)(=O)c2c[nH]c(-c3ccccc3)c2)c(F)cc1C(F)(F)F` [Cpd 338, N-[2-fluoro-5-methyl-4-(trifluoromethyl)phenyl]-5-phenyl-1H-pyrrole-3-sulfonamide], with 500 to 5000 nM; and `O=S(=O)(Nc1cc(F)c(C(F)(F)F)cc1F)c1c[nH]c(-c2nccs2)c1` [Cpd 339, N-[2,5-difluoro-4-(trifluoromethyl)phenyl]-5-thiazol-2-yl-1H-pyrrole-3-sulfonamide], with under 500 nM. To `N#Cc1ccc(NS(=O)(=O)c2c[nH]cc2Cc2cccc(OC3CC3)c2)c(F)c1` [Cpd 340, N-(4-cyano-2-fluoro-phenyl)-4-[[3-(cyclopropoxy)phenyl]methyl]-1H-pyrrole-3-sulfonamide] belongs 500 to 5000 nM; to `CC(C)Oc1cccc(Cc2c[nH]cc2S(=O)(=O)Nc2ccc(C#N)cc2F)c1` [Cpd 341, N-(4-cyano-2-fluoro-phenyl)-4-[(3-isopropoxyphenyl)methyl]-1H-pyrrole-3-sulfonamide], 500 to 5000 nM. Consider `N#Cc1ccc(NS(=O)(=O)c2c[nH]cc2Cc2cccc(OCC3CC3)c2)c(F)c1` [Cpd 342, N-(4-cyano-2-fluoro-phenyl)-4-[[3-(cyclopropylmethoxy)phenyl]methyl]-1H-pyrrole-3-sulfonamide], for which the IC50 lay in the range of 500 to 5000 nM. To `N#Cc1ccc(NS(=O)(=O)c2c[nH]cc2Cc2cccs2)c(F)c1` [Cpd 343, N-(4-cyano-2-fluoro-phenyl)-4-(2-thienylmethyl)-1H-pyrrole-3-sulfonamide] belongs under 500 nM; to `O=S(=O)(Nc1cc(F)c(C(F)(F)F)cc1F)c1c[nH]c(-c2cccc(C(F)(F)F)n2)c1` [Cpd 344, N-[2,5-difluoro-4-(trifluoromethyl)phenyl]-5-[6-(trifluoromethyl)-2-pyridyl]-1H-pyrrole-3-sulfonamide], 500 to 5000 nM; to `O=S(=O)(Nc1cc(F)c(C(F)(F)F)cc1F)c1c[nH]c(-c2ccc(Br)cn2)c1` [Cpd 345, 5-(5-bromo-2-pyridyl)-N-[2,5-difluoro-4-(trifluoromethyl)phenyl]-1H-pyrrole-3-sulfonamide], 500 to 5000 nM.
